The source of these data is patent US11975106B2, “Uses of halogenated xanthenes in oncology and virology” (Provectus Pharmatech, Inc., priority 2020, dated 2024).

Converted amounts (≈) assume the structure as drawn. Like-named read-outs stand apart in the source and are kept apart here. Some results are limits rather than exact numbers.

The test system of one data set is young male Wistar rats. To be noted: cited from earlier work.
For data set [1] the following is noted: package insert; cited from earlier work.
Data set [2] can be described thus: Plasma protein binding, ultracentrifugation method, rat plasma. The class given is in vitro ADME. An excerpt: (§1) In normal rats, 75-80% of the RB was recovered from the albumin fraction and the remaining 20-25% in other protein fractions [Tsao et al. 1988, supra; and Meurman, Acta medica Scan, Supp 167, Chapters I, III, V, VII, X and XII (1960)].
The nature of data set [3]: Plasma protein binding, ultracentrifugation method, human plasma. The class given is in vitro ADME.
Excerpt: as §1

Data set [4] has as its system SARS-CoV-2. The class given is cell-based. To be noted: Calu-3 cells, 48-hour RB contact; read-out: EC50 (viral titer).
Data set [5] deals with SARS-CoV-2 isolate USA-WA1/2020. Description: microbe, parasite or virus in culture. The class given is cell-based.
The next data set has as its system STING. The experiment in a line: STING dimerization by Western blot in THP-1 AML cells. The class given is cell-based. How it is done:
Cells were treated with RB and the induction of STING was evaluated by Western blot analysis using cyclic guanosine monophosphate-adenosine monophosphate (cGAMP) as a positive control.
(§2) These studies were carried out using RB at 100 μM, or about 0.01% RB. Cytokine assays were carried out prior to the addition of RB to the cell culture medium (0), and at 8, 24 and 48 hours thereafter.
(§3) Proteins that associate with STING in the presence of RB were purified by immunoprecipitation and analyzed by mass spectrometry (LC-MS/MS). The culture supernatants from RB-treated cells were probed for a panel of 42 immune cytokines using the Bio-Plex® multiplex bead-based assay system (Bio-Rad Laboratories, Inc.).
On the technique in general: In western blotting, separated proteins are transferred to a membrane and probed.

For another data set, the system named is THP-1 AML cells. Description: Cytokine/chemokine Bio-Plex assay of THP-1 AML culture supernatants. The class given is cell-based. As to conditions: RB 100 μM. How it is done:
as §2, §3

Data set [6] can be described thus: Clinical studies of PV-10 delivered intratumorally. The class given is in vivo, human. As to the method: In clinical studies of PV-10 (10% disodium RB in saline for injection), RB has been tolerated at a bolus dose of 1500 mg upon intravasation when delivered intratumorally; this equates to an exposure of approximately 300 mg/L in the bloodstream (300 μM RB).

The nature of data set [7]: Classic IV diagnostic use of RB, blood concentration. To be noted: 100 mg single IV bolus, blood volume approximately 5 L (also approximately 20 μM). The class given is in vivo, human. As to the method: Based on a molecular weight of 1018 g/mole for disodium RB, the classic IV diagnostic use of RB, conducted by giving 100 mg RB as a single IV bolus to adults with a standard blood volume of approximately 5 L, achieved a concentration of approximately 20 mg/L in the blood, or approximately 20 μM RB. Exposure at such a level would have minimal direct cytotoxic effect on solid tumor or hematologic malignancies, as illustrated by the results of Swift et al. 2019 or Swift et al. 2018, above.

The test system of data set [8] is SARS-CoV-2 viral envelope protein (E gene) vRNA. Description: qPCR of viral RNA (E gene) after RB treatment. The class given is cell-based.
Data set [9] has as its system SARS-CoV-2.
The next data set has as its system Vero cells. As to conditions: 48 hours.
The subject of the next data set is leukemia cell lines. As to conditions: cited from earlier work.
The conditions of data set [10]: cited from earlier work.
The conditions of data set [11]: cited from earlier work. This is another data set of the same source.
The conditions of data set [12]: humans, intravenous; cited from earlier work.
Another data set has as its system progressive COVID-19. As to conditions: cited from earlier work.
For data set [13] the following is noted: in vivo; cited from earlier work.
Setting [14] is: oral 300 mg/kg/day, young male Wistar rats.
Where [15] appears, read: rats, similar concentrations for comparators.

In the case of `O=S(=O)([O-])c1ccc2c(N=Nc3ccc(S(=O)(=O)[O-])c4ccccc34)c(O)c(S(=O)(=O)[O-])cc2c1.[Na+].[Na+].[Na+]` [Amaranth, reference compound], the “H^3-UTP incorporation into RNA or RNA content in liver nuclei (RNA synthesis in vivo)” value with young male Wistar rats (rat, in vivo) is on record as “stimulate RNA synthesis”.

“Yervoy®: immune checkpoint inhibitor monoclonal antibody”: in [1], the “terminal t1/2” value was 15.4 days.

For `O=C1OC2(c3cc(I)c(O)c(I)c3Oc3c2cc(I)c(O)c3I)c2c(Cl)c(Cl)c(Cl)c(Cl)c21` [RB, 4,5,6,7-tetrachloro-2′,4′,5′,7′-tetraiodofluorescein], the plasma protein binding in [2] is given as 99.2%; in data set [2] (1 μM), 99.0%; in data set [3] (1 μM) it was 99.8%; in [3] (10 μM), 99.9%. Also, the figures for the EC50 with SARS-CoV-2 [4] and with SARS-CoV-2 [9] (read-out: EC50 (viral titer)) were 0.015 µM and 0.054 µM, respectively. Further, the half-inhibitory concentration (IC50) in data set [5] (RB alone, 2 hours of contact, Vero C1008, read-out: IC50 for inhibition) is 67 µM; in data set [5] (RB plus 0.15 μM remdesivir, 2-hour RB contact, Vero C1008, read-out: IC50 for inhibition), 47.4 µM; in the data set with leukemia cell lines (primary pediatric leukemia cell lines) it was 92.8 µM; in the data set with leukemia cell lines (refractory (relapsed) pediatric leukemia cell lines), 122 µM. The “STING dimerization (Western blot)” value in the data set with STING (RB at 100 μM) was “new about 70-KD STING dimer band”. For the same compound, in the data set on STING (compared to cGAMP controls), the “induction of PDL-1” value is on record as “no induction”. Moreover, the “increase in IL-6” value in the data set on THP-1 AML cells (24 hours following exposure) was “approximately 10 fold”. For the same compound, in the data set on THP-1 AML cells (24 hours following exposure), the “increase in IL-8” value is “approximately 10 fold”. In the data set with THP-1 AML cells (24 hours following exposure), the “increase in IP-10” value is on record as “approximately 10 fold”. In addition, the MCP-1 levels result in the data set with THP-1 AML cells is given as “significant increase”. Besides, the “induction of IFN gamma” value with THP-1 AML cells (peak at 24 hours) is given as over 2 fold. In addition, the “induction of MCP-3” value with THP-1 AML cells (peak at 24 hours) is over 2 fold. Further, the “exposure in the bloodstream” value in [6] (at 1500 mg bolus (printed also as 300 μM RB)) is reported as “approximately 300 mg/L”. In [6] (upon intravasation when delivered intratumorally as PV-10), this compound yielded a tolerated bolus dose of 1500 mg. Besides, in data set [7], the “concentration in the blood” value is listed as “approximately 20 mg/L”. In addition, in data set [8], the “cycle threshold (ct) of sub-genomic viral RNA” value is reported as “higher ct values”. The “viral E gene copy numbers / viral production” value in [8] (RB added after the virus has been incubated with the cells) is “no effect”. Also, the “viral E gene copy numbers” value is “reduction compared to control” in [8] (virus and RB added at the same time); “lower copy numbers” in [8] (virus pre-treated with RB 0.6 μM, 1 hour, p<0.05). Besides, the “SI (CC50/EC50)” value in the data set with SARS-CoV-2 [9] (Vero cells, 48 hours) is given as 3211. Also, the “inhibition in viral titers” value with SARS-CoV-2 [9] (Vero cells, approximately 1 to 100 μM RB, 48 hours of contact) is “complete inhibition”. The same compound registered a CC50 in the data set on Vero cells of 175 µM. The bound in serum result in [10] (equilibrium dialysis, serum from rats lacking serum albumin) is “more than 99.8%”. Further, the “recovered from the albumin fraction” value in data set [10] (normal rats) is on record as 75-80%. The “recovered in other protein fractions” value in data set [10] (normal rats) is reported as 20-25%. Also, the solubility in data set [11] (in 2-methoxyethanol (printed also as 6%)) is listed as 60 mg/mL (≈ 61.6 mM); in data set [11] (in ethanol (printed also as 3%)), 30 mg/mL (≈ 30.8 mM); in [11] (in water (printed also as 10%)) it was at least 100 mg/mL. Also, the circulatory half-life entry in data set [12] is recorded as “about 30 minutes”. In the data set on young male Wistar rats (setting [14]), the “influence on growth rate” value was “no influence”. Also, the relative liver weight result in the data set on young male Wistar rats (setting [14]) is “significant decrease”. The “H^3-UTP incorporation into RNA or RNA content in liver nuclei (RNA synthesis in vivo)” value with young male Wistar rats (setting [15]) is “No effect”.

For `Cc1cc(C)c(N=Nc2c(O)c(S(=O)(=O)[O-])cc3cc(S(=O)(=O)[O-])ccc23)cc1C.[Na+].[Na+]` [Ponceau 3R, reference compound], the “H^3-UTP incorporation into RNA or RNA content in liver nuclei (RNA synthesis in vivo)” value in the data set on young male Wistar rats (setting [15]) is reported as “stimulate RNA synthesis”.

Regarding “tocilizumab: immunosuppressive humanized monoclonal antibody against the interleukin-6 receptor”, the death rate ratio in the data set on progressive COVID-19 (28-day mortality, 95% CI 0.77-0.96, p=0.007) was 0.86. Also, the “proportional reduction in 28-day mortality” value with progressive COVID-19 (about 4000 hospitalized patients, progressive COVID-19) was 13%.

As for `N#C[C@@]1(c2ccc3c(N)ncnn23)O[C@H](CO)[C@@H](O)[C@H]1O` [GS-441524], in data set [13], the half-life entry is recorded as “about 25 hours”.

`CCC(CC)COC(=O)[C@H](C)N[P@](=O)(OC[C@H]1O[C@@](C#N)(c2ccc3c(N)ncnn23)[C@H](O)[C@@H]1O)Oc1ccccc1` [remdesivir, reference compound]: the 50% effective concentration (EC50) in data set [5] (Severe acute respiratory syndrome coronavirus 2, Vero C1008, read-out: EC50 (percent plaque forming unit)) worked out at 0.86 µM. In data set [5] (Severe acute respiratory syndrome coronavirus 2, Vero C1008, read-out: IC50 (percent inhibition)), the IC50 came out at 0.86 µM. Further, the half-life result in data set [13] was “about 0.89 hours”.

As a reminder, the EC50 is the concentration that produces a half-maximal response. One may read the IC50 as the concentration needed to halve the response being measured. What is called CC50 is the concentration giving 50% cytotoxicity. What is called solubility is the concentration that dissolves in the medium under given conditions.
